Experimental data reported in patent publication US4585861A, “1,2,4-triazine derivatives” (Eli Lilly and Company, priority 1985, dated 1986).

Tests used:
GABA receptor = test: In vitro activation of GABA binding ([3H]GABA, Triton X-100 treated membrane protein); settings: average of one or more tests, read-out: SC50 GABA (nanomolar concentration producing a 50% increase in binding)
Description: (§1) The novel compounds of this invention were examined for their in vitro ability to activate GABA and benzodiazepine (BZ) binding. To measure the effect of a compound on GABA binding, Triton X-100 (octylphenoxy polyethoxyethanol, Rohm and Haas Co.) treated membrane protein was incubated in the presence of the compound and [^3 H]GABA as detailed by Horng and Wong, J. Neurochemistry, 32 (5), 1379 (1979). To examine BZ binding, H-flunirazepam and the compounds were incubated with native membrane protein as reported by Wong, et al, Brain Res. Bull., 5 (Suppl. 2), 853 (1980). The results in Table 1 are the nanomolar concentrations of compounds (by Example No.) which produced a 50 percent increase (SC50) in GABA or BZ binding. Each result is the average of one or more tests.

benzodiazepine receptor = test: In vitro activation of benzodiazepine (BZ) binding (flunirazepam, native membrane protein); settings: average of one or more tests, read-out: SC50 BZ (nanomolar concentration producing a 50% increase in binding)
Description: as §1

[1] = Metrazole Induced Convulsion Inhibition Assay; type: in vivo, Cox standard strain albino male mice; settings: Mus musculus; oral gavage, 1 h before metrazole 110 mg./kg. i.p.; active = total score of 6 or less (3 mice, range 0-12); read-out: Minimum active oral dose, Metrazole
Description: (§2) In this assay, a compound to be tested was suspended in acacia (5%) and administered by gavage to each of three Cox standard strain albino male mice (18-24 grams) at the dose level being investigated. One hour after the oral administration, a water solution of metrazole (pentylenetetrazole) was administered by the intraperitoneal route to each mouse at a dose of 110 mg./kg. […] A score of 0 was assigned to a mouse not showing any signs of convulsant activity; a score of 1 was given to mice developing clonic convulsions; a score of 2 was given to mice showing flexor tonic convulsions; a score of 3 was given to mice showing extensor tonic convulsions; and a score of 4 was given to mice that died within the one hour. The scores of the three mice were totalled for each compound and dose level. The scores can range from 0 to 12; a score of 6 or less was interpreted as indicative of an active compound at that dose level. Values reported in Table 2 below are the minimum oral dose levels (mg./kg.) where activity as defined above was observed.

[2] = Electroshock Induced Convulsion Inhibition Assay; type: in vivo, Cox standard strain albino male mice; settings: Mus musculus; oral; 0.1 second, 50 milliampere corneal electroshock; active = total score of 6 or less; read-out: Minimum active oral dose, Electro-Shock
Description: as §2
The drug administration and test conditions used in this assay were similar to those used in the metrazole induced convulsion inhibition assay above except that a 0.1 second, 50 milliampere electroshock through corneal electrodes induced the convulsion instead of metrazole. The animals were examined and evaluated immediately after the electroshock and were scored as before. The results in Table 2 are expressed as the lowest dose of each compound tested which was active as previously defined. For comparison, 18 milliamperes was usually sufficient to produce extensor tonic convulsions in about half of the control animals; at 50 milliamperes, almost all control animals died. Diazepam was active at about 1 mg./kg.

[3] = Appetite Suppression Assay; type: in vivo, Cox standard strain albino male mice; settings: Mus musculus; oral gavage 30 min before feeding; active = weight gain of less than 10% of weight lost on fasting; read-out: Minimum active oral dose, Appetite Suppression
Description: In this test, groups of three Cox standard strain albino male mice were weighed (18-24 grams) and then fasted overnight (16-18 hours). The mice were reweighed and then given the test compound in a suspension of acacia (5%) by gavage. Thirty minutes after oral administration, the mice were allowed to eat freely for one hour. After the eating period, the mice were weighed once more. The percent of weight gained (from the time the mice were given the test compound to after the feeding period) compared to weight lost during the fast period was calculated. The non-drug treated control animals gained back 35-55% of the weight lost on fasting. Any compound at the dose level tested which produced a weight gain of less than 10% was considered to be active. The results in Table 2 report the lowest dose level in which there was activity for each compound tested. Dextroamphetamine sulfate is active in this system at about 2.5 mg./kg.

[4] = Mouse Writhing Inhibition Assay; type: in vivo, Cox standard strain albino male mice; settings: oral gavage 60 min before acetic acid 55 mg./kg. i.p., active = less than ten writhes, read-out: Minimum active oral dose, Mouse Writhing
Description: Writhing, which is characterized by contraction of the abdominal musculature, extension of the hindlegs, and rotation of the trunk, was induced in Cox standard strain albino male mice. The mice, weighing 18-24 grams, were fasted overnight and given the test compound by gavage in an acacia suspension (5%) 60 minutes before writhing was induced by the intraperitoneal administration of 55 mg./kg. of acetic acid (0.55 percent). Each treatment group consisted of 3 mice. The total number of writhes for the treatment group was determined during a 5-minute observation starting 5 minutes after acetic acid administration.

EC50 (GABA receptor) [nM] | EC50 (benzodiazepine receptor) [nM] | Compound | minimal effective dose [1] [mg/kg] | minimal effective dose [2] [mg/kg] | minimal effective dose [3] [mg/kg] | minimal effective dose [4] [mg/kg]
> 10000 | 8000 | Cc1ccc(-c2nnc(N3CCC4(CC3)OCCO4)nc2-c2ccc(C)cc2)cc1 [Example 38, 8-[5,6-bis(4-methylphenyl)-1,2,4-triazin-3-yl]-1,4-dioxa-8-azaspiro(4.5)decane] | > 200 | > 200 | > 200 | > 200
56 | 15 | Cc1ccc(-c2nnc(N3CCC(OC(N)=O)CC3)nc2-c2ccc(C)cc2)cc1 [Example 29, 1-[5,6-bis(4-methylphenyl)-1,2,4-triazin-3-yl]-4-piperidinol, carbamate (ester)] | > 6.25 | > 6.25 | 0.4 | 1.56
3.3 | 5.5 | CC(=O)OC1CCN(c2nnc(-c3ccc(C)cc3)c(-c3ccc(C)cc3)n2)CC1 [Example 12, 1-[5,6-bis(4-methylphenyl)-1,2,4-triazin-3-yl]-4-piperidinol, acetate (ester)] | 6.25 | 25 | 12.5 | 12.5
160 | 180 | CC(=O)OC1CCCN(c2nnc(-c3ccc(C)cc3)c(-c3ccc(C)cc3)n2)C1 (stereo not drawn) [Example 24, 1-[5,6-bis(4-methylphenyl)-1,2,4-triazine-3-yl]-3-piperidinol, acetate (ester)] | > 200 | > 200 | > 200 | > 200
80 | 90 | COC1CCN(c2nnc(-c3ccc(C)cc3)c(-c3ccc(C)cc3)n2)CC1 [Example 26, 3-(4-methoxy-1-piperidinyl)-5,6-bis(4-methylphenyl)-1,2,4-triazine] | 6.2 | 6.2 | 6.2 | 6.2
8000 | 1200 | Cc1ccc(-c2nnc(N3CCC(OS(=O)(=O)c4ccc(C)cc4)CC3)nc2-c2ccc(C)cc2)cc1 [Example 33, 1-[5,6-bis(4-methylphenyl)-1,2,4-triazin-3-yl]-4-piperidinol, 4-methylbenzene sulfonate (ester)] | > 200 | > 200 | > 200 | > 200

Continued, compound first:

Compound | EC50 (GABA receptor) [nM] | EC50 (benzodiazepine receptor) [nM] | minimal effective dose [1] [mg/kg] | minimal effective dose [2] [mg/kg] | minimal effective dose [3] [mg/kg] | minimal effective dose [4] [mg/kg]
CCOC(=O)C1CCN(c2nnc(-c3ccc(C)cc3)c(-c3ccc(C)cc3)n2)CC1 [Example 35, 1-[5,6-bis(4-methylphenyl)-1,2,4-triazin-3-yl]-4-piperidinecarboxylic acid, ethyl ester] | 12 | 18 | > 200 | > 200 | > 200 | > 200
Cc1ccc(-c2ncc(N3CCC(O)CC3)nc2-c2ccc(C)cc2)cc1 [Example 42, 1-[5,6-bis(4-methylphenyl)pyrazin-2-yl]-4-piperidinol] | 1200 | 400 | 12.5 | 50 | 12.5 | 12.5
Cc1ccc(-c2nnc(N3CCCC(O)C3)nc2-c2ccc(C)cc2)cc1 (stereo not drawn) [Example 23, 1-[5,6-bis(4-methylphenyl)-1,2,4-triazin-3-yl]-3-piperidinol] | 400 | 700 | 50 | 50 | 12.5 | 12.5
CC(=O)OC1CCN(c2cnc(-c3ccc(C)cc3)c(-c3ccc(C)cc3)n2)CC1 [Example 43, 1-[5,6-bis(4-methylphenyl)pyrazin-2-yl]-4-piperidinol, acetate (ester)] | 7 | 10 | 25 | 100 | 25 | 100
Cc1ccc(-c2nnc(N3CCCCC3)nc2-c2ccc(C)cc2)cc1 [Example 20, 5,6-bis(4-methylphenyl)-3-(1-piperidinyl)-1,2,4-triazine] | 5200 | 515 | 12.5 | 50 | 12.5 | 12.5
Cc1ccc(-c2nnc(N3CCCCCC3)nc2-c2ccc(C)cc2)cc1 [Example 21, 1-[5,6-bis(4-methylphenyl)-1,2,4-triazin-3-yl]-hexahydro-1H-azepine] | 2000 | 600 | > 200 | > 200 | > 200 | > 200
CC(=O)OC1CCN(c2nnc(-c3ccccc3C)c(-c3ccccc3C)n2)CC1 [Example 14, 1-[5,6-bis(2-methylphenyl)-1,2,4-triazin-3-yl]-4-piperidinol, acetate (ester)] | 60 | 1000 | 200 | > 200 | 200 | > 200
CCC(=O)OC1CCN(c2nnc(-c3ccc(C)cc3)c(-c3ccc(C)cc3)n2)CC1 [Example 15, 1-[5,6-bis(4-methylphenyl)-1,2,4-triazin-3-yl]-4-piperidinol, propanoate (ester)] | 10 | 19 | 12.5 | 12.5 | 12.5 | 12.5
